Source: US9266869B2, “Substituted dialkyl(oxido)-lambda4-sulfanylidene nicotinamide derivatives as kinase inhibitors” (Allergan, Inc., priority 2013, dated 2016)

Legend:
PDGFRβ [1] = biological target: T1, PDGFRβ (Homo sapiens (Human), UniProt P09619); assay: PDGFRβ Kinase Assay; format: biochemical; details: purified cytoplasmic domain PDGFR-b protein, 36 μM ATP; read-out: PDGFRβ Enzyme Assay (IC50 nM)
Experimental: Biochemical PDGFRβ kinase assays were performed in 96 well microtiter plates that were coated overnight with 75 μg of poly-Glu-Tyr (4:1) in 10 mM Phosphate Buffered Saline (PBS), pH 7.4.
(§1) PBS-T prior to starting the reaction. Reactions were carried out in 100 μL reaction volumes containing 36 μM ATP in kinase buffer (50 mM Hepes buffer pH 7.4, 20 mM MgCl2, 0.1 mM MnCl2 and 0.2 mM Na3VO4). […] Reactions were initiated by the addition 20 ul per well of kinase buffer containing 200-300 ng purified cytoplasmic domain PDGFR-b protein (Millipore). Following a 60 minute incubation at 30° C., the reactions were washed 2 mls per well PBS-T. 100 μl of a monoclonal anti-phosphotyrosine antibody-peroxidase conjugate diluted 1:10,000 in PBS-T was added to the wells for 30 minutes. Following a 2 mls per well wash with PBS-Tween-20, 100 μl of O-Phenylenediamine Dihydrochloride in phosphate-citrate buffer, containing urea hydrogen peroxide, was added to the wells for 7-10 minutes as a colorimetric substrate for the peroxidase. […] IC50 values for compound inhibition were calculated directly from graphs of optical density (arbitrary units) versus compound concentration following subtraction of blank values.
Target sequence in this assay (P09619 554-1106): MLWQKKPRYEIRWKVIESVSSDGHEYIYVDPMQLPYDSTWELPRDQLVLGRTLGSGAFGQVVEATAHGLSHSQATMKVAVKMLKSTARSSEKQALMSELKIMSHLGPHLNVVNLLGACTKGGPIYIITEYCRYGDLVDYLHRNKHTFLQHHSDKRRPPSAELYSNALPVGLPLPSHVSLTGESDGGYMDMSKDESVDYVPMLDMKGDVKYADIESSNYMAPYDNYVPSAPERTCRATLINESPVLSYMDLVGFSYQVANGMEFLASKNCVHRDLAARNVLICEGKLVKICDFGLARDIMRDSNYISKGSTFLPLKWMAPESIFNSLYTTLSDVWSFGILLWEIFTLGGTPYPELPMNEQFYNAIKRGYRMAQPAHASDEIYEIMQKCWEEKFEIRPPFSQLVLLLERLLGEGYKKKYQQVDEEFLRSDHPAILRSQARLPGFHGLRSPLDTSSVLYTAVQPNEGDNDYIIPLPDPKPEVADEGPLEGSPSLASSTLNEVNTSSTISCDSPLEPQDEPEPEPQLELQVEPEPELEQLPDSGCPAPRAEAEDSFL

VEGFR2 (KDR) = VEGFR2 (KDR) (Homo sapiens (Human), UniProt P35968); assay: VEGFR2 Kinase Assay; format: biochemical; details: purified cytoplasmic domain KDR protein, 2.7 μM ATP; read-out: VEGFR2 Enzyme Assay (IC50 nM)
Chain of VEGFR2 (KDR) (P35968 786-1356): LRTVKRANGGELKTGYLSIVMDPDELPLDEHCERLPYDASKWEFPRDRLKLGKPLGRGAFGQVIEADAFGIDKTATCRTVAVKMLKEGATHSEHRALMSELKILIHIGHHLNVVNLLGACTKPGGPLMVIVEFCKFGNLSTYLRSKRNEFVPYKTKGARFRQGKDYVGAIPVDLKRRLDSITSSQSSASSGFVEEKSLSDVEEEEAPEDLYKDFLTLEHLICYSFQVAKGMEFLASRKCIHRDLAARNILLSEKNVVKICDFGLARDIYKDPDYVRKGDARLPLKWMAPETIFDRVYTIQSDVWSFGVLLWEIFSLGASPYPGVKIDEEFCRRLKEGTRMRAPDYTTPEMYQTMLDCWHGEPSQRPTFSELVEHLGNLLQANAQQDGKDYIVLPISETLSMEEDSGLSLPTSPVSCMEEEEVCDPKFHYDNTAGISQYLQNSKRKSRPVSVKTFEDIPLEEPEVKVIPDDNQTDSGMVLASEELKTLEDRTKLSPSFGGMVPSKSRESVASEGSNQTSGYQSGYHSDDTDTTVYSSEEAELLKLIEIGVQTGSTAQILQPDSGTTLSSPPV
Experimental: as §1, with “VEGFR2 Kinase Assay Biochemical KDR kinase assays were performed in 96 well microtiter plates that were coated overnight with 75 μg/well of poly-Glu-[…]:1) in 10 mM Phosphate Buffered Saline (PBS), pH 7.4. […]” for “PBS-T prior to starting the reaction.”, “2.7” for “36”, “KDR” for “PDGFR-b”, “(BPS Bioscience, San Diego, Calif.).” for “(Millipore).”, “15” for “60”, “0-Phenylenediamine” for “O-Phenylenediamine”

VEGFR2 = VEGFR2 (Homo sapiens (Human), UniProt P35968); assay: VEGFR2 Cellular Assay (VEGF induced intracellular calcium, FLIPR, HUVEC); format: cell-based; details: VEGF165 stimulation (10 ng/mL)
Chain of VEGFR2 (P35968 20-1356): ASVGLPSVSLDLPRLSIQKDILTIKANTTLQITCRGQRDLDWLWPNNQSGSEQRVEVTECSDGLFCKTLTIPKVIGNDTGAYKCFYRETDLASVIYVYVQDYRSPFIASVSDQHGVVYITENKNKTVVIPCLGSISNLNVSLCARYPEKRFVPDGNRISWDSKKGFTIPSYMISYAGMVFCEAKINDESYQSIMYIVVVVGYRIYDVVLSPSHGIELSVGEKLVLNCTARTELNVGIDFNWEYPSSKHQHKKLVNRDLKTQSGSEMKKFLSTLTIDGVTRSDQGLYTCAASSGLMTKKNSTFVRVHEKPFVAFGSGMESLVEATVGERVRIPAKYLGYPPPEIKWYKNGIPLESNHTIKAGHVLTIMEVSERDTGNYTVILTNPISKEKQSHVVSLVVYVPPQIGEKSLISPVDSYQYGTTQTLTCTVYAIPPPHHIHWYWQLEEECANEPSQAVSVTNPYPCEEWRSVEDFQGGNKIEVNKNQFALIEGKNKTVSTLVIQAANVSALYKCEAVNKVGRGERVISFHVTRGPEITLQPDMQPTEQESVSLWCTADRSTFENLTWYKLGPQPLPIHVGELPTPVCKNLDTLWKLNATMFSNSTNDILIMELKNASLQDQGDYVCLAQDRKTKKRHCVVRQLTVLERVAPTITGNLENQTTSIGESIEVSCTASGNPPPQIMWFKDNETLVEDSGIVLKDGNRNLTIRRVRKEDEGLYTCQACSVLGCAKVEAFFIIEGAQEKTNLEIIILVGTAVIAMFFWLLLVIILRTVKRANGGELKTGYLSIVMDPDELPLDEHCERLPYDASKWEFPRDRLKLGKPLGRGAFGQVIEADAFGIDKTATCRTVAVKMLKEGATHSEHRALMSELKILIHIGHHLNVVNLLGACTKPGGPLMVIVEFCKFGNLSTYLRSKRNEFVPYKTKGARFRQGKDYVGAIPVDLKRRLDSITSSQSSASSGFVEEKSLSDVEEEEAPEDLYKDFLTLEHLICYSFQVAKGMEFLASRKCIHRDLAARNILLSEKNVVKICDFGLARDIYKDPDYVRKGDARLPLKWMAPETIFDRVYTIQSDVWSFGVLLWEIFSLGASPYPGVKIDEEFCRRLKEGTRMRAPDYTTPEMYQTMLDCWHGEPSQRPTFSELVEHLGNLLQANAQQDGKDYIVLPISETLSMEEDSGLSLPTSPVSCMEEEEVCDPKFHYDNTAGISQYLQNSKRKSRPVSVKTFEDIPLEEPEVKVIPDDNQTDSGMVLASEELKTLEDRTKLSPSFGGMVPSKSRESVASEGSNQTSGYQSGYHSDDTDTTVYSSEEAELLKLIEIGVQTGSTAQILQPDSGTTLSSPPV
Experimental: (§2) VEGFR2 Cellular Assay Automated FLIPR (Fluorometric Imaging Plate Reader) technology was used to screen for inhibitors of VEGF induced increases in intracellular calcium levels in fluorescent dye loaded endothelial cells. HUVEC (human umbilical vein endothelial cells) (Clonetics) were seeded in 384-well fibronectin coated black-walled plates overnight @ 37° C./5% CO2. Cells were loaded with calcium indicator Fluo-4 for 45 minutes at 37° C. Cells were washed 2 times (Elx405, Biotek Instruments) to remove extracellular dye. For screening, cells were pre-incubated with test agents for 30 minutes, at a single concentration (10 uM) or at concentrations ranging from 0.0001 to 10.0 uM followed by VEGF165 stimulation (10 ng/mL). Changes in fluorescence at 516 nm were measured simultaneously in all 384 wells using a cooled CCD camera. Data were generated by determining max-min fluorescence levels for unstimulated, stimulated, and drug treated samples. IC50 values for test compounds were calculated from % inhibition of VEGF stimulated responses in the absence of inhibitor.

PDGFRβ [2] = biological target: T1, PDGFRβ; assay: PDGFRβ Cellular Assay (PDGF-induced intracellular calcium, FLIPR, NHDF-Ad); format: cell-based; details: PDGF-BB stimulation (30 ng/mL)
Experimental: as §2, with “Automated” for “VEGFR2 Cellular Assay Automated”, “of PDGF-induced” for “of VEGF induced”, “[…]. NHDF-Ad (Normal Human Dermal Fibroblasts, Adult; Lonza)” for “cells. HUVEC (human umbilical vein endothelial cells) (Clonetics)”, “by PDGF-BB” for “by VEGF165”, “stimulation (30” for “stimulation (10”, “of PDGF-BB” for “of VEGF”
Target sequence in this assay (P09619 33-1106): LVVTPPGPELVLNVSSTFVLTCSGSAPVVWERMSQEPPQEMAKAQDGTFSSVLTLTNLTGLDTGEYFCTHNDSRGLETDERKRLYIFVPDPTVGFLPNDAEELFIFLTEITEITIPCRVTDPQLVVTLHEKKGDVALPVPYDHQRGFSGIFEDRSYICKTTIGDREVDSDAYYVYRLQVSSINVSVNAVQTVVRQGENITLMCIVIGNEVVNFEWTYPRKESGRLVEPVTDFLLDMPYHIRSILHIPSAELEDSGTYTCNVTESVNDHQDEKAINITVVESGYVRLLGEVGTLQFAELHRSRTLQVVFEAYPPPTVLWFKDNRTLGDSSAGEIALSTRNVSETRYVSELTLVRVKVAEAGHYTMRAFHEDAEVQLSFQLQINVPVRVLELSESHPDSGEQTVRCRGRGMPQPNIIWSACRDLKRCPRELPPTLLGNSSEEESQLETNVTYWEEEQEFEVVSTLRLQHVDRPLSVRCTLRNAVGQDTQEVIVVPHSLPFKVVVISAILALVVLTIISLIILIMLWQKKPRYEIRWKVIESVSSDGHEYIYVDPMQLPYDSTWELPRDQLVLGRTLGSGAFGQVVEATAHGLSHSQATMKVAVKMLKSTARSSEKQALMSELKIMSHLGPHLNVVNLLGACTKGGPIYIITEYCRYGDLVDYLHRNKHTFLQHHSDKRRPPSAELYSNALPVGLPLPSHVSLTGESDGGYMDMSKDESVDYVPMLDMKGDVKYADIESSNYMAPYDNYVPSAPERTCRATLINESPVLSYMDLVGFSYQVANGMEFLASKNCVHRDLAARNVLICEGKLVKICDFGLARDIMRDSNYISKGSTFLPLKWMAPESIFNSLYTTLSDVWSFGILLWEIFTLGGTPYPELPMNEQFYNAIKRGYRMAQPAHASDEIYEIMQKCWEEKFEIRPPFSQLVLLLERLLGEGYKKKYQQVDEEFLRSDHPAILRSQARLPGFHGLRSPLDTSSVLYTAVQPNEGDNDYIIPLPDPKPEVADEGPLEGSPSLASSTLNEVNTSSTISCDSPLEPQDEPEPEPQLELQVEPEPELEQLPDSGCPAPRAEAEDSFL

Compound	IC50 (PDGFRβ [1]) [nM]	IC50 (VEGFR2 (KDR)) [nM]	IC50 (VEGFR2) [nM]	IC50 (PDGFRβ [2]) [nM]
6-Amino-N-[(3-hydroxypropyl)(methyl)oxido-λ^4-sulfanylidene]-5-({3-[(3-methyl-2-furoyl)amino]phenyl}ethynyl)nicotinamide [Example 42]	13	5	–	–
CS(C)(=O)=NC(=O)c1cnc(N)c(C#Cc2cccc(NC(=O)c3ccc(Cl)cc3)c2)c1 [Example 5, 6-Amino-5-({3-[(4-chlorobenzoyl)amino]phenyl}ethynyl)-N-[dimethyl(oxido)-λ^4-sulfanylidene]nicotinamide]	22	2	9	–
Cn1ccnc1C(=O)Nc1cccc(C#Cc2cc(C(=O)N=S(C)(C)=O)cnc2N)c1 [Example 7, 6-Amino-N-[dimethyl(oxido)-λ^4-sulfanylidene]-5-[(3-{[(1-methyl-1H-imidazol-2-yl)carbonyl]amino}phenyl)ethynyl]nicotinamide]	–	6	51	–
CS(C)(=O)=NC(=O)c1cncc(C#Cc2cccc(NC(=O)Nc3ccccc3F)c2)c1 [Example 9, N-[Dimethyl(oxido)-λ^4-sulfanylidene]-5-{[3-({[(2-fluorophenyl)amino]carbonyl}amino)phenyl]ethynyl}nicotinamide]	–	8	48	–
Cc1cccc(NC(=O)Nc2cccc(C#Cc3cncc(C(=O)N=S(C)(C)=O)c3)c2)c1 [Example 10, N-[Dimethyl(oxido)-λ^4-sulfanylidene]-5-{[3-({[(3-methylphenyl)amino]carbonyl}amino)phenyl]ethynyl}nicotinamide]	19	8	11	–
Cc1ccc(NC(=O)Nc2cccc(C#Cc3cncc(C(=O)N=S(C)(C)=O)c3)c2)cc1 [Example 11, N-[Dimethyl(oxido)-λ^4-sulfanylidene]-5-{[3-({[(4-methylphenyl)amino]carbonyl}amino)phenyl]ethynyl}nicotinamide]	19	6	15	–
Cc1ccoc1C(=O)Nc1cccc(C#Cc2cncc(C(=O)N=S(=O)(CCCO)CCCO)c2)c1 [Example 14, N-[Bis(3-hydroxypropyl)(oxido)-λ^4-sulfanylidene]-5-({3-[(3-methyl-2-furoyl)amino]phenyl}ethynyl)nicotinamide]	26	5	–	–
Cc1ccoc1C(=O)Nc1cccc(C#Cc2cc(C(=O)N=S(=O)(CCCO)CCCO)cnc2N)c1 [Example 15, 6-amino-N-[bis(3-hydroxypropyl)(oxido)-λ^4-sulfanylidene]-5-({3-[(3-methyl-2-furoyl)amino]phenyl}ethynyl)nicotinamide]	16	3	–	–
O=C(N=S(=O)(CCCO)CCCO)c1cncc(C#Cc2cccc(NC(=O)c3ccc(Cl)c(C(F)(F)F)c3)c2)c1 [Example 16, N-[Bis(3-hydroxypropyl)(oxido)-λ^4-sulfanylidene]-5-[(3-{[4-chloro-3-(trifluoromethyl)benzoyl]amino}phenyl)ethynyl]nicotinamide]	–	3	–	–
Cc1cccc(C(=O)Nc2cccc(C#Cc3cncc(C(=O)N=S(=O)(CCCO)CCCO)c3)c2)c1 [Example 17, N-[Bis(3-hydroxypropyl)(oxido)-λ^4-sulfanylidene]-5-({3-[(3-methylbenzoyl)amino]phenyl}ethynyl)nicotinamide]	6	3	–	–
O=C(N=S(=O)(CCCO)CCCO)c1cncc(C#Cc2cccc(NC(=O)c3cccc(C(F)(F)F)c3)c2)c1 [Example 18, N-[Bis(3-hydroxypropyl)(oxido)-λ^4-sulfanylidene]-5-[(3-{[3-(trifluoromethyl)benzoyl]amino}phenyl)ethynyl]nicotinamide]	–	4	–	–
O=C(N=S(=O)(CCCO)CCCO)c1cncc(C#Cc2cccc(NC(=O)c3ccc(F)c(Cl)c3)c2)c1 [Example 19, N-[Bis(3-hydroxypropyl)(oxido)-λ^4-sulfanylidene]-5-({3-[(3-chloro-4-fluorobenzoyl)amino]phenyl}ethynyl)nicotinamide]	–	5	–	–
Cc1ccc(F)c(C(=O)Nc2cccc(C#Cc3cncc(C(=O)N=S(=O)(CCCO)CCCO)c3)c2)c1 [Example 20, N-[Bis(3-hydroxypropyl)(oxido)-λ^4-sulfanylidene]-5-({3-[(2-fluoro-5-methylbenzoyl)amino]phenyl}ethynyl)nicotinamide]	–	9	–	–
COc1cccc(C(=O)Nc2cccc(C#Cc3cc(C(=O)N=S(=O)(CCCO)CCCO)cnc3N)c2)c1 [Example 21, 6-Amino-N-[bis(3-hydroxypropyl)(oxido)-λ^4-sulfanylidene]-5-({3-[(3-methoxybenzoyl)amino]phenyl}ethynyl)nicotinamide]	–	5	–	–
Cc1cccc(NC(=O)c2cccc(C#Cc3cc(C(=O)N=S(=O)(CCCO)CCCO)cnc3N)c2)c1 [Example 22, 6-Amino-N-[bis(3-hydroxypropyl)(oxido)-λ^4-sulfanylidene]-5-[(3-{[(3-methylphenyl)amino]carbonyl}phenyl)ethynyl]nicotinamide]	8	3	–	–
Cc1ccoc1C(=O)Nc1cccc(C#Cc2cc(C(=O)N=S(C)(=O)CCCCC(=O)O)cnc2N)c1 (stereo not shown) [Example 24, 5-(N-{[6-amino-5-({3-[(3-methyl-2-furoyl)amino]phenyl}ethynyl)pyridin-3-yl]carbonyl}-S-methylsulfonimidoyl)pentanoic acid]	–	5	46	–
COC(=O)CCCCS(C)(=O)=NC(=O)c1cnc(N)c(C#Cc2cccc(NC(=O)c3cc(C)ccc3F)c2)c1 (stereo not shown) [Example 25, Methyl 5-(N-{[6-amino-5-({3-[(2-fluoro-5-methylbenzoyl)amino]phenyl}ethynyl)pyridin-3-yl]carbonyl}-S-methylsulfonimidoyl)pentanoate]	45	8	–	27
COC(=O)CCCCS(C)(=O)=NC(=O)c1cnc(N)c(C#Cc2cccc(C(=O)Nc3cc(C)ccc3F)c2)c1 (stereo not shown) [Example 35, Methyl 5-[N-({6-amino-5-[(3-{[(2-fluoro-5-methylphenyl)amino]carbonyl}phenyl)ethynyl]pyridin-3-yl}carbonyl)-S-methylsulfonimidoyl]pentanoate]	–	17	–	43
COC(=O)CCCCS(C)(=O)=NC(=O)c1cnc(N)c(C#Cc2cccc(NC(=O)Nc3cc(C)ccc3F)c2)c1 (stereo not shown) [Example 37, Methyl 5-{N-[(6-amino-5-{[3-({[(2-fluoro-5-methylphenyl)amino]carbonyl}amino)phenyl]ethynyl}pyridin-3-yl)carbonyl]-S-methylsulfonimidoyl}pentanoate]	14	5	–	44
(R)—N-[(3-Hydroxypropyl)(methyl)oxido-λ^4-sulfanylidene]-5-({3-[(3-methyl-2-furoyl)amino]phenyl}ethynyl)nicotinamide [Example 40]	–	3	2	–
